# Measurements taken from patent publication US20240368096A1 (Enanta Pharmaceuticals, Inc., priority 2022, published 2024).
# Read-outs that look alike come from different tables or passages of the source.
# Legend:
# NTCP = target: T1, NTCP (Homo sapiens, UniProt Q14973); assay: HepG2-NTCP preS1 binding competition assay (FITC-labeled myristoylated preS1 peptide); settings: HepG2-NTCP cells; competition with FITC-labeled preS1 peptide
# T1 construct: expressed in transfected cells; host or cells: HepG2-NTCP (clone A3, kept under puromycin)
# T1 sequence (Q14973 1-349): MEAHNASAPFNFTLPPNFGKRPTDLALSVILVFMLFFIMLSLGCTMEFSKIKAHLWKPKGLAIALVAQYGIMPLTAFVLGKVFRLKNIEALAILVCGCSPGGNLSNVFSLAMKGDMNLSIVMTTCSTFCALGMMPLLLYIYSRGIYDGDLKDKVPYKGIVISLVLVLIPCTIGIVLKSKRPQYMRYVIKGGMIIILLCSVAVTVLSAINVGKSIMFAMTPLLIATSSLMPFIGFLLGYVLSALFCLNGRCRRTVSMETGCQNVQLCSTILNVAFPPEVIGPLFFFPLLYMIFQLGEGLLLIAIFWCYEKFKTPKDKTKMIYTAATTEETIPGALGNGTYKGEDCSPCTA
# Experimental: HepG2-NTCP preS1 Binding Competition Assay
# Myristoylated preS1 peptide (2-48 aa) conjugated to a C-terminal FITC tag was synthesized to evaluate preS1 binding to NTCP-expressing cells. HepG2-NTCP cells seeded in 384-wells were pre-treated with compounds for 2 hours prior to the addition of FITC-labeled preS1 peptide. After co-incubation for 30 minutes, unbound FITC-preS1 peptide was washed twice with PBS, and the fluorescence of preS1-FITC bound to cell surface was detected by Envision plate reader. EC50 ranges are as follows: A<0.1 μM; B 0.1-1 μM; C>1 μM.
# HBV = HBV infection in HepG2-NTCP cells (HBeAg AlphaLISA in supernatants); assay type: cell-based; settings: HBV infection of HepG2-NTCP cells, HBeAg in supernatants at day 8 post infection, read-out: Cellular EC50
# Outline: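 HepG2-NTCP A3 cells were pre-incubated 2 h with 3-fold serially diluted compounds, then infected with HBV at 2000 GE/cell with 4% PEG (0.5% DMSO final). After washing on day 1, cells stayed in 2.5% DMSO medium; supernatant HBeAg measured by AlphaLISA on day 8, EC50 versus DMSO controls.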
SMILES,EC50 (NTCP),"EC50 (HBV; Hepatitis B virus, 192 h)",EC50 (HBV)
CN1[C@H](C2CCCCC2)CN(c2ccccc2)c2cc(Cl)c(-c3ccc(S(N)(=O)=O)s3)cc2S1(=O)=O [Example 201],> 1000 nM,–,–
CN1[C@H](C2CCCCC2)CN(c2ccccc2)c2cc(Cl)c(N3CC[C@H](C(=O)O)C3)cc2S1(=O)=O [Example 611],100 to 1000 nM,–,–
CN1[C@H](C2CCCCC2)CN(c2nccs2)c2cc(Cl)c(-c3ccc(F)c(C(=O)O)c3)cc2S1(=O)=O [Example 317],100 to 1000 nM,100 to 1000 nM,–
"CN1[C@H](C2CCCCC2)CN(c2csc(Cl)c2)c2cc(Cl)c(-c3ccc(F)c(C(=O)O)c3)cc2S1(=O)=O [Example 316, (R)-5-(7-chloro-5-(5-chlorothiophen-3-yl)-3-cyclohexyl-2-methyl-1,1-dioxido-2,3,4,5-tetrahydrobenzo[f][1,2,5]thiadiazepin-8-yl)-2-fluorobenzoic acid]",< 100 nM,< 100 nM,–
"CN1[C@H](C2CCCCC2)CN(c2ccccc2)c2cc(Cl)c(-c3ccc(N)c(C(=O)O)c3)cc2S1(=O)=O [Example 157, (R)-2-amino-5-(7-chloro-3-cyclohexyl-2-methyl-1,1-dioxido-5-phenyl-2,3,4,5-tetrahydrobenzo[f][1,2,5]thiadiazepin-8-yl)benzoic acid]",100 to 1000 nM,100 to 1000 nM,–
"CCCCC1CN(c2ccccc2)c2cc(CN3CCCC3)c(-c3ccc(F)c(C(=O)O)c3)cc2S(=O)(=O)N1C (centres unmarked) [Example 563, 5-(3-butyl-2-methyl-1,1-dioxido-5-phenyl-7-(pyrrolidin-1-ylmethyl)-2,3,4,5-tetrahydrobenzo[f][1,2,5]thiadiazepin-8-yl)-2-fluorobenzoic acid]",< 100 nM,100 to 1000 nM,–
CCCCOC(=O)Nc1cc(-c2cc3c(cc2Cl)N(c2ccccc2)C[C@@H](C2CCCCC2)N(C)S3(=O)=O)sc1C(=O)O [Example 246],< 100 nM,< 100 nM,–
CN1[C@H](C2CCCCC2)CN(c2ccccc2)c2cc(C34CC(C(F)(F)F)(C3)C4)c(-c3ccc(F)c(C(=O)O)c3)cc2S1(=O)=O [Example 595],< 100 nM,< 100 nM,–
"CN1[C@H](C2CCCCC2)CN(c2ccccc2)c2cc(F)c(-c3ccc(NC(=O)OCc4ccccc4)c(C(=O)O)c3)cc2S1(=O)=O [Example 235, (R)-2-(((benzyloxy)carbonyl)amino)-5-(3-cyclohexyl-7-fluoro-2-methyl-1,1-dioxido-5-phenyl-2,3,4,5-tetrahydrobenzo[f][1,2,5]thiadiazepin-8-yl)benzoic acid]",< 100 nM,< 100 nM,–
CN1[C@H](C2CCCCC2)CN(c2ccccc2)c2cc(Cl)c(-c3cc(NC(=O)OCC(F)F)c(C(=O)O)s3)cc2S1(=O)=O [Example 242],< 100 nM,< 100 nM,–
CN1[C@H](C2CCCCC2)CN(C2CCOCC2)c2cc(Cl)c(-c3ccc(F)c(C(=O)O)c3)cc2S1(=O)=O [Example 321],100 to 1000 nM,100 to 1000 nM,–
CCCS(=O)(=O)Nc1ccc(-c2cc3c(cc2Cl)N(c2ccccc2)C[C@@H](C2CCCCC2)N(C)S3(=O)=O)cc1C(=O)O [Example 274],< 100 nM,< 100 nM,–
CN1[C@H](C2CCCCC2)CN(c2ccccc2)c2cc(Cl)c(N3CC[C@@H](C(=O)O)C3)cc2S1(=O)=O [Example 610],100 to 1000 nM,–,–
CN(C)C(=O)c1ccc(N2C[C@@H](C3CCCCC3)N(C)S(=O)(=O)c3cc(-c4ccc(F)c(C(=O)O)c4)c(Cl)cc32)cc1 [Example 315],> 1000 nM,–,–
CN1[C@H](C2CCCCC2)CN(c2ccccc2)c2cc(Cl)c(-c3cc(Cl)c(N)c(C(=O)O)c3)cc2S1(=O)=O [Example 192],100 to 1000 nM,–,–
CN1[C@H](C2CCCCC2)CN(c2ccccc2)c2cc(OC3COC3)c(-c3ccc(F)c(C(=O)O)c3)cc2S1(=O)=O [Example 370],100 to 1000 nM,–,–
CC(C)C(=O)NS(=O)(=O)c1ccc(-c2cc3c(cc2Cl)N(c2ccccc2)C[C@@H](C2CCCCC2)N(C)S3(=O)=O)s1 [Example 227],100 to 1000 nM,–,–
COCCCOC(=O)Nc1cc(-c2cc3c(cc2Cl)N(c2ccccc2)C[C@@H](C2CCCCC2)N(C)S3(=O)=O)sc1C(=O)O [Example 263],< 100 nM,–,–
CN1[C@H](C2CCCCC2)CN(c2ccccc2)c2cc(Cl)c(-c3ccc(S(=O)(=O)NC(=O)c4ccccc4)s3)cc2S1(=O)=O [Example 226],100 to 1000 nM,–,–
CN1[C@H](C2CCCCC2)CN(c2ccccc2)c2cc(O[C@H]3C[C@H](O)C3)c(-c3cc(F)c(C(=O)O)s3)cc2S1(=O)=O [Example 503],100 to 1000 nM,–,–
COC1CC(OC(=O)Nc2cc(-c3cc4c(cc3Cl)N(c3ccccc3)C[C@@H](C3CCCCC3)N(C)S4(=O)=O)sc2C(=O)O)C1 (some centres unmarked) [Example 264],< 100 nM,–,–
CN1[C@H](C2COC2)CN(c2ccccc2)c2cc(Cl)c(-c3ccc(F)c(C(=O)O)c3)cc2S1(=O)=O [Example 106],–,> 1000 nM,–

SMILES,EC50 (NTCP),"EC50 (HBV; Hepatitis B virus, 192 h)",EC50 (HBV)
CN1[C@H](C2CCCCC2)CN(c2ccccc2)c2cc(C3CC(F)(F)C3)c(-c3ccc(F)c(C(=O)O)c3)cc2S1(=O)=O [Example 589],–,< 100 nM,–
COC[C@@H]1CN(c2ccccc2)c2cc(Cl)c(-c3ccc(F)c(C(=O)O)c3)cc2S(=O)(=O)N1C [Example 95],–,100 to 1000 nM,–
Cc1cscc1COc1cc2c(cc1-c1ccc(F)c(C(=O)O)c1)S(=O)(=O)N(C)[C@H](C1CCCCC1)CN2c1ccccc1 [Example 338],–,< 100 nM,–
"CSc1cc2c(cc1-c1cc(C)c(C(=O)O)s1)S(=O)(=O)N(C)[C@H](C1CCCCC1)CN2c1ccccc1 [Example 562, (R)-5-(3-cyclohexyl-2-methyl-7-(methylthio)-1,1-dioxido-5-phenyl-2,3,4,5-tetrahydrobenzo[f][1,2,5]thiadiazepin-8-yl)-3-methylthiophene-2-carboxylic acid]",–,< 100 nM,–
CC(C)C[C@@H]1CN(c2ccccc2)c2cc(Cl)c(-c3cccc(C(N)=O)c3)cc2S(=O)(=O)N1C [Example 167],–,> 1000 nM,–
CC(C)C[C@@H]1CN(c2ccccc2)c2cc(Cl)c(-c3cccc(CC(=O)O)c3)cc2S(=O)(=O)N1C [Example 173],–,> 1000 nM,–
CC(C)C[C@@H]1CN(c2ccccc2)c2cc(N3CCc4cccc(F)c43)c(-c3ccc(Cl)c(C(=O)O)c3)cc2S(=O)(=O)N1C [Example 553],–,100 to 1000 nM,–
CN1[C@H](C2CCCCC2)CN(c2cncc(C(F)(F)F)c2)c2cc(Cl)c(-c3ccc(F)c(C(=O)O)c3)cc2S1(=O)=O [Example 282],–,100 to 1000 nM,–
CSc1cc2c(cc1-c1ccc(F)c(C(=O)O)c1)S(=O)(=O)N1CC(C)(C)CC1CN2c1ccccc1 (centres unmarked) [Example 20],–,100 to 1000 nM,–
CN1[C@H](C2CCCCC2)CN(c2ccccc2)c2cc(OC3CC4(CCC4)C3)c(-c3cc(F)c(C(=O)O)s3)cc2S1(=O)=O [Example 484],–,100 to 1000 nM,–
CCCOC(=O)Nc1cc(-c2cc3c(cc2Cl)N(c2ccccc2)C[C@@H](C2CCCCC2)N(C)S3(=O)=O)sc1C(=O)O [Example 243],–,< 100 nM,–
CC(C)C[C@@H]1CN(c2ccccc2)c2cc(C3=CCC(C)(C)CC3)c(-c3ccc(C4=CCC(C)(C)CC4)c(C(=O)O)c3)cc2S(=O)(=O)N1C [Example 218],–,100 to 1000 nM,–
"Cc1ccc(C(=O)O)c(C)c1-c1cc2c(cc1Cl)N(c1ccccc1)C[C@@H](C1CCCCC1)N(C)S2(=O)=O [Example 147, 3-((3R)-7-chloro-3-cyclohexyl-2-methyl-1,1-dioxido-5-phenyl-2,3,4,5-tetrahydrobenzo[f][1,2,5]thiadiazepin-8-yl)-2,4-dimethylbenzoic acid]",–,–,> 1000 nM
CN1[C@H](C2CCCCC2)CN(c2ccccc2)c2cc(Cl)c(-c3cc(NC(=O)OCCOC(C)(C)C)c(C(=O)O)s3)cc2S1(=O)=O [Example 262],< 100 nM,–,–
CN1[C@H](C2CCCCC2)CN(c2ccccc2)c2cc(OCCC3CCN(C(=O)OC(C)(C)C)CC3)c(-c3ccc(F)c(C(=O)O)c3)cc2S1(=O)=O [Example 367],–,< 100 nM,–
CC(=O)NS(=O)(=O)c1cccc(-c2cc3c(cc2Cl)N(c2ccccc2)C[C@@H](C2CCC2)N(C)S3(=O)=O)c1 [Example 228],–,100 to 1000 nM,–
CC(C)CC1CN(c2ccccc2)c2cc(Cl)c(-c3cncc(C(=O)O)c3)cc2S(=O)(=O)N1C (centres unmarked) [Example 35],–,100 to 1000 nM,–
C[C@H](OC(C)(C)C)[C@@H]1CN(c2ccccc2)c2cc(Cl)c(-c3ccc(F)c(C(=O)O)c3)cc2S(=O)(=O)N1C [Example 91],–,> 1000 nM,–
COCCC(=O)N1CCC(c2cc3c(cc2-c2ccc(F)c(C(=O)O)c2)S(=O)(=O)N(C)[C@H](C2CCCCC2)CN3c2ccccc2)CC1 [Example 600],–,> 1000 nM,–
COc1cc(-c2cc3c(cc2Cl)N(c2ccccc2)C[C@@H](C2CCCCC2)N(C)S3(=O)=O)cc(C(=O)O)c1NC(=O)OCC(C)C [Example 278],–,< 100 nM,–
CN1[C@H](C2CCCCC2)CN(c2ccccc2)c2cc(C3CCN(C(=O)c4ccno4)CC3)c(-c3ccc(F)c(C(=O)O)c3)cc2S1(=O)=O [Example 599],–,> 1000 nM,–
